Columns and labels:
[1] = The drug is tested on Bacteroides caccae strain: ATCC43185 for biotransformation. The drug concentrations were measured before and after a 12-h incubation by liquid-chromatography-coupled mass spectrometry (LC–MS); settings: 2 µM
[2] = The drug is tested on Providencia rettgeri strain: DSM1131 for biotransformation. The drug concentrations were measured before and after a 12-h incubation by liquid-chromatography-coupled mass spectrometry (LC–MS); type: ADME; design: dose 2 uM, timepoint 0 vs 12 hours; settings: 2 µM
[3] = The drug is tested on Clostridium scindens strain: ATCC35704 for biotransformation. The drug concentrations were measured before and after a 12-h incubation by liquid-chromatography-coupled mass spectrometry (LC–MS); settings: 2 µM
[4] = bifidobacterium adolescentis, 12 h, 2 µM
Description: The drug is tested on Bifidobacterium adolescentis strain: ATCC 15703 for biotransformation. The drug concentrations were measured before and after a 12-h incubation by liquid-chromatography-coupled mass spectrometry (LC–MS)

[5] = bacteroides thetaiotaomicron, 12 h, 2 µM
Description: The drug is tested on Bacteroides thetaiotaomicron strain: 3731 for biotransformation. The drug concentrations were measured before and after a 12-h incubation by liquid-chromatography-coupled mass spectrometry (LC–MS)

[6] = The drug is tested on Blautia luti strain: DSM14534 for biotransformation. The drug concentrations were measured before and after a 12-h incubation by liquid-chromatography-coupled mass spectrometry (LC–MS); type: ADME; design: dose 2 uM, timepoint 0 vs 12 hours; settings: 2 µM
[7] = bacteroides eggerthii, 12 h, 2 µM
Description: The drug is tested on Bacteroides eggerthii strain: DSM20697 for biotransformation. The drug concentrations were measured before and after a 12-h incubation by liquid-chromatography-coupled mass spectrometry (LC–MS)

[8] = parabacteroides johnsonii, 12 h, 2 µM
Description: The drug is tested on Parabacteroides johnsonii strain: DSM18315 for biotransformation. The drug concentrations were measured before and after a 12-h incubation by liquid-chromatography-coupled mass spectrometry (LC–MS)

[9] = The drug is tested on Collinsella intestinalis strain: DSM13280 for biotransformation. The drug concentrations were measured before and after a 12-h incubation by liquid-chromatography-coupled mass spectrometry (LC–MS); settings: 2 µM
[10] = The drug is tested on Bacteroides coprophilus strain: DSM18228 for biotransformation. The drug concentrations were measured before and after a 12-h incubation by liquid-chromatography-coupled mass spectrometry (LC–MS); settings: 2 µM
[11] = The drug is tested on Clostridium ramosum strain: DSM1402 for biotransformation. The drug concentrations were measured before and after a 12-h incubation by liquid-chromatography-coupled mass spectrometry (LC–MS); settings: thomasclavelia ramosa, 2 µM
[12] = bacteroides thetaiotaomicron, 12 h, 2 µM; remark: listed apart in the source
Description: The drug is tested on Bacteroides thetaiotaomicron strain: VPI-5482 for biotransformation. The drug concentrations were measured before and after a 12-h incubation by liquid-chromatography-coupled mass spectrometry (LC–MS)

[13] = The drug is tested on Bacteroides xylanisolvens strain: DSM18836 for biotransformation. The drug concentrations were measured before and after a 12-h incubation by liquid-chromatography-coupled mass spectrometry (LC–MS); settings: 2 µM
[14] = bacteroides intestinalis, 12 h, 2 µM
Description: The drug is tested on Bacteroides intestinalis strain: DSM17393 for biotransformation. The drug concentrations were measured before and after a 12-h incubation by liquid-chromatography-coupled mass spectrometry (LC–MS)

[15] = The drug is tested on Parabacteroides merdae strain: ATCC43184 for biotransformation. The drug concentrations were measured before and after a 12-h incubation by liquid-chromatography-coupled mass spectrometry (LC–MS); settings: 2 µM
[16] = The drug is tested on Enterococcus faecalis strain: V583 for biotransformation. The drug concentrations were measured before and after a 12-h incubation by liquid-chromatography-coupled mass spectrometry (LC–MS); settings: 2 µM
[17] = limosilactobacillus reuteri cf48-3a, 12 h, 2 µM
Description: The drug is tested on Lactobacillus reuteri CF48-3A strain: BEI HM-102 for biotransformation. The drug concentrations were measured before and after a 12-h incubation by liquid-chromatography-coupled mass spectrometry (LC–MS)

[18] = The drug is tested on Clostridium sporogenes strain: ATCC15579 for biotransformation. The drug concentrations were measured before and after a 12-h incubation by liquid-chromatography-coupled mass spectrometry (LC–MS); settings: 2 µM
[19] = The drug is tested on Bacteroides fragilis strain: ATCC43859 for biotransformation. The drug concentrations were measured before and after a 12-h incubation by liquid-chromatography-coupled mass spectrometry (LC–MS); settings: 2 µM

CCCC(=O)Nc1ccc(OCC(O)CNC(C)C)c(C(C)=O)c1 (stereo not drawn) [ACEBUTOLOL]
Bacterial Biotransformation [1]: Compound NOT metabolized | Bacterial Biotransformation [2]: Compound NOT metabolized | Bacterial Biotransformation [3]: Compound NOT metabolized | Bacterial Biotransformation [4]: Compound NOT metabolized | Bacterial Biotransformation [5]: Compound NOT metabolized | Bacterial Biotransformation [6]: Compound NOT metabolized | Bacterial Biotransformation [7]: Compound NOT metabolized | Bacterial Biotransformation [8]: Compound NOT metabolized | Bacterial Biotransformation [9]: Compound NOT metabolized | Bacterial Biotransformation [10]: Compound NOT metabolized | Bacterial Biotransformation [11]: Compound NOT metabolized | Bacterial Biotransformation [12]: Compound NOT metabolized | Bacterial Biotransformation [13]: Compound NOT metabolized | Bacterial Biotransformation [14]: Compound NOT metabolized | Bacterial Biotransformation [15]: Compound NOT metabolized | Bacterial Biotransformation [16]: Compound NOT metabolized | Bacterial Biotransformation [17]: Compound NOT metabolized | Bacterial Biotransformation [18]: Compound NOT metabolized

c1ccc([C@H]2CN3CCSC3=N2)cc1 [LEVAMISOLE]
Bacterial Biotransformation [1]: Compound metabolized | Bacterial Biotransformation [2]: Compound NOT metabolized | Bacterial Biotransformation [3]: Compound metabolized | Bacterial Biotransformation [4]: Compound NOT metabolized | Bacterial Biotransformation [5]: Compound NOT metabolized | Bacterial Biotransformation [6]: Compound NOT metabolized | Bacterial Biotransformation [7]: Compound metabolized | Bacterial Biotransformation [8]: Compound metabolized | Bacterial Biotransformation [9]: Compound NOT metabolized | Bacterial Biotransformation [10]: Compound metabolized | Bacterial Biotransformation [12]: Compound metabolized | Bacterial Biotransformation [13]: Compound metabolized | Bacterial Biotransformation [14]: Compound metabolized | Bacterial Biotransformation [15]: Compound NOT metabolized | Bacterial Biotransformation [16]: Compound NOT metabolized | Bacterial Biotransformation [19]: Compound metabolized | Bacterial Biotransformation [18]: Compound metabolized

CCCC1O[C@@H]2C[C@H]3[C@@H]4CCC5=CC(=O)C=C[C@]5(C)[C@H]4[C@@H](O)C[C@]3(C)[C@]2(C(=O)CO)O1 (stereo partly drawn) [BUDESONIDE]
Bacterial Biotransformation [1]: Compound NOT metabolized | Bacterial Biotransformation [3]: Compound NOT metabolized | Bacterial Biotransformation [4]: Compound NOT metabolized | Bacterial Biotransformation [5]: Compound metabolized | Bacterial Biotransformation [6]: Compound NOT metabolized | Bacterial Biotransformation [7]: Compound metabolized | Bacterial Biotransformation [8]: Compound metabolized | Bacterial Biotransformation [9]: Compound NOT metabolized | Bacterial Biotransformation [10]: Compound NOT metabolized | Bacterial Biotransformation [12]: Compound metabolized | Bacterial Biotransformation [14]: Compound NOT metabolized | Bacterial Biotransformation [15]: Compound metabolized | Bacterial Biotransformation [16]: Compound NOT metabolized | Bacterial Biotransformation [19]: Compound metabolized | Bacterial Biotransformation [17]: Compound NOT metabolized

CCCC(C)(COC(N)=O)COC(=O)NC(C)C (stereo not drawn) [CARISOPRODOL]
Bacterial Biotransformation [1]: Compound NOT metabolized | Bacterial Biotransformation [3]: Compound NOT metabolized | Bacterial Biotransformation [9]: Compound NOT metabolized | Bacterial Biotransformation [10]: Compound metabolized | Bacterial Biotransformation [11]: Compound NOT metabolized | Bacterial Biotransformation [12]: Compound metabolized | Bacterial Biotransformation [13]: Compound metabolized | Bacterial Biotransformation [14]: Compound NOT metabolized | Bacterial Biotransformation [15]: Compound NOT metabolized | Bacterial Biotransformation [16]: Compound NOT metabolized | Bacterial Biotransformation [19]: Compound metabolized

Cc1nc2n(c(=O)c1CCN1CCC(c3noc4cc(F)ccc34)CC1)CCCC2 [RISPERIDONE]
Bacterial Biotransformation [1]: Compound metabolized | Bacterial Biotransformation [2]: Compound NOT metabolized | Bacterial Biotransformation [3]: Compound metabolized | Bacterial Biotransformation [4]: Compound NOT metabolized | Bacterial Biotransformation [5]: Compound NOT metabolized | Bacterial Biotransformation [6]: Compound metabolized | Bacterial Biotransformation [8]: Compound NOT metabolized | Bacterial Biotransformation [9]: Compound metabolized | Bacterial Biotransformation [10]: Compound NOT metabolized | Bacterial Biotransformation [12]: Compound NOT metabolized | Bacterial Biotransformation [13]: Compound NOT metabolized | Bacterial Biotransformation [14]: Compound NOT metabolized | Bacterial Biotransformation [15]: Compound NOT metabolized | Bacterial Biotransformation [16]: Compound metabolized | Bacterial Biotransformation [19]: Compound metabolized | Bacterial Biotransformation [17]: Compound NOT metabolized | Bacterial Biotransformation [18]: Compound metabolized

O=C(O)COCCN1CCN(C(c2ccccc2)c2ccc(Cl)cc2)CC1 (stereo not drawn) [CETIRIZINE]
Bacterial Biotransformation [1]: Compound NOT metabolized | Bacterial Biotransformation [3]: Compound NOT metabolized | Bacterial Biotransformation [5]: Compound metabolized | Bacterial Biotransformation [6]: Compound NOT metabolized | Bacterial Biotransformation [7]: Compound metabolized | Bacterial Biotransformation [8]: Compound NOT metabolized | Bacterial Biotransformation [10]: Compound metabolized | Bacterial Biotransformation [11]: Compound NOT metabolized | Bacterial Biotransformation [12]: Compound metabolized | Bacterial Biotransformation [13]: Compound metabolized | Bacterial Biotransformation [14]: Compound metabolized | Bacterial Biotransformation [15]: Compound NOT metabolized | Bacterial Biotransformation [16]: Compound NOT metabolized | Bacterial Biotransformation [19]: Compound metabolized | Bacterial Biotransformation [17]: Compound NOT metabolized | Bacterial Biotransformation [18]: Compound NOT metabolized

COC(=O)[C@H](c1ccccc1Cl)N1CCc2sccc2C1.O=S(=O)(O)O [CLOPIDOGREL BISULFATE]
Bacterial Biotransformation [1]: Compound NOT metabolized | Bacterial Biotransformation [2]: Compound NOT metabolized | Bacterial Biotransformation [3]: Compound NOT metabolized | Bacterial Biotransformation [4]: Compound NOT metabolized | Bacterial Biotransformation [5]: Compound NOT metabolized | Bacterial Biotransformation [6]: Compound NOT metabolized | Bacterial Biotransformation [7]: Compound metabolized | Bacterial Biotransformation [8]: Compound metabolized | Bacterial Biotransformation [9]: Compound NOT metabolized | Bacterial Biotransformation [10]: Compound metabolized | Bacterial Biotransformation [12]: Compound metabolized | Bacterial Biotransformation [13]: Compound metabolized | Bacterial Biotransformation [14]: Compound NOT metabolized | Bacterial Biotransformation [15]: Compound metabolized | Bacterial Biotransformation [16]: Compound NOT metabolized | Bacterial Biotransformation [19]: Compound metabolized | Bacterial Biotransformation [17]: Compound NOT metabolized | Bacterial Biotransformation [18]: Compound metabolized

CCOC(=O)[C@H](CCc1ccccc1)N[C@H]1CCc2ccccc2N(CC(=O)O)C1=O [BENAZEPRIL]
Bacterial Biotransformation [1]: Compound metabolized | Bacterial Biotransformation [3]: Compound NOT metabolized | Bacterial Biotransformation [4]: Compound NOT metabolized | Bacterial Biotransformation [5]: Compound metabolized | Bacterial Biotransformation [7]: Compound metabolized | Bacterial Biotransformation [8]: Compound metabolized | Bacterial Biotransformation [9]: Compound NOT metabolized | Bacterial Biotransformation [10]: Compound metabolized | Bacterial Biotransformation [11]: Compound NOT metabolized | Bacterial Biotransformation [12]: Compound metabolized | Bacterial Biotransformation [13]: Compound metabolized | Bacterial Biotransformation [14]: Compound metabolized | Bacterial Biotransformation [15]: Compound metabolized | Bacterial Biotransformation [16]: Compound metabolized | Bacterial Biotransformation [19]: Compound metabolized | Bacterial Biotransformation [17]: Compound NOT metabolized | Bacterial Biotransformation [18]: Compound metabolized

CC(C(=O)O)c1ccc2c(c1)Cc1cccnc1O2 (stereo not drawn) [PRANOPROFEN]
Bacterial Biotransformation [1]: Compound metabolized | Bacterial Biotransformation [2]: Compound metabolized | Bacterial Biotransformation [3]: Compound NOT metabolized | Bacterial Biotransformation [5]: Compound metabolized | Bacterial Biotransformation [6]: Compound NOT metabolized | Bacterial Biotransformation [7]: Compound metabolized | Bacterial Biotransformation [8]: Compound metabolized | Bacterial Biotransformation [10]: Compound metabolized | Bacterial Biotransformation [11]: Compound metabolized | Bacterial Biotransformation [12]: Compound metabolized | Bacterial Biotransformation [13]: Compound metabolized | Bacterial Biotransformation [14]: Compound metabolized | Bacterial Biotransformation [15]: Compound metabolized | Bacterial Biotransformation [16]: Compound NOT metabolized | Bacterial Biotransformation [19]: Compound metabolized

CN1CCC[C@@H]1CCO[C@](C)(c1ccccc1)c1ccc(Cl)cc1.O=C(O)/C=C/C(=O)O [CLEMASTINE FUMARATE]
Bacterial Biotransformation [2]: Compound metabolized | Bacterial Biotransformation [3]: Compound NOT metabolized | Bacterial Biotransformation [6]: Compound NOT metabolized | Bacterial Biotransformation [7]: Compound metabolized | Bacterial Biotransformation [8]: Compound NOT metabolized | Bacterial Biotransformation [9]: Compound NOT metabolized | Bacterial Biotransformation [10]: Compound metabolized | Bacterial Biotransformation [11]: Compound NOT metabolized | Bacterial Biotransformation [12]: Compound NOT metabolized | Bacterial Biotransformation [13]: Compound metabolized | Bacterial Biotransformation [14]: Compound NOT metabolized | Bacterial Biotransformation [15]: Compound NOT metabolized | Bacterial Biotransformation [19]: Compound NOT metabolized | Bacterial Biotransformation [17]: Compound NOT metabolized

— ChEMBL document CHEMBL5303573, “Mapping human microbiome drug metabolism by gut bacteria and their genes” (Nature, 2019)
